Measurements published in US20070276024A1, “Methods for Treating Diseases and Conditions with Inverse Agonists and for Screening for Agents Acting as Inverse Agonists” (Inverseon , Inc., priority 2003, published 2007).
Entries after “also recorded” stand apart in the source; their conditions may differ. Where two headings read alike, the source gives them in different places.

Experiments:
[1] = cited from earlier work
[2] = test system: tracheas from asthmatic mice; conditions: asthmatic mice chronically treated; cited from earlier work
β2-adrenergic receptor = β2-adrenergic receptor (Mus musculus, UniProt P18762); format: in vivo, mice; conditions: for level of the β2-adrenergic receptor: chronic treatment; for Bmax (receptor density) / βmax (receptor density): lung membranes, mean±SEM, n=3-5; for Bmax (receptor density): drug treatment 15 Minutes; for βmax (receptor density): drug treatment 28 Days
Protocol: β2-adrenergic receptor numbers were measured in asthmatic mice as follows. […] Mice were sacrificed and lung membranes were isolated as follows. Frozen lung tissue was homogenized in an ice-cold buffer containing 0.32 M sucrose and 25 mM Tris (pH 7.4) using a polytron (Pro 200, Pro Scientific, Inc.). The homogenate was centrifuged at 1000×g for 10 min at 4° C. The resulting supernatant was centrifuged at 40,000×g for 20 min at 4° C. The pellet was suspended in an ice-cold 25 mM Tris-HCl buffer (pH 7.4) and centrifuged at 40,000'g for 20 min at 4° C. The final pellet was suspended in 200 μL of 25 mM Tris-HCl (pH 7.4); membrane protein concentration was determined by BCA protein assay kit. […] The incubation was done at 37° C. for 2 h and terminated by rapid vacuum filtration through glass fiber filters. The filters were washed three times with 250 μL of cold wash buffer (25 mM Tris-HCl, pH 7.4) and the radioactivity determined in a counter. […] Receptor densities are expressed as femtomoles of sites per milligram of protein. Bmax is determined by nonlinear regression of the saturation binding curves.

asthmatic mice = experiment: Airway resistance (Raw) response to methacholine in murine model of asthma; format: in vivo, Balb/cJ mice; conditions: for airway responsiveness to methacholine provocation (airway resistance, Raw) / airway hyperresponsiveness: asthmatic mice; for airway hyperresponsiveness: methacholine challenge, chronic treatment 7 days, 20 mg/kg (metoprolol 3× daily s.c.; timolol in chow)
Protocol: Balb/cJ mice aged 6 weeks (Jackson Animal Laboratory, Bar Harbor, Maine) were housed under specific pathogen-free conditions and fed a chicken ovalbumin-free diet. The Animal Research Ethics Boards of both the University of Houston and the Baylor College of Medicine approved all experiments reported here. […] Mice were sensitized with subcutaneous injection of 25 μg of ovalbumin adsorbed to aluminum hydroxide on protocol days 2, 9, and 16. Subsequently, mice were given 50 μL of saline solution containing 25 μg of ovalbumin intranasally, on a daily basis, from protocol days 23 through 27. A group of ovalbumin-sensitized saline-challenged mice serves as controls for systemic sensitization and respiratory challenges with ovalbumin. Prior to intranasal administrations, mice were sedated with halothane vapor.
To examine the effects of duration of β-adrenergic ligand therapy on the phenotype of the murine model of asthma, the experimental drugs were administered either acutely or chronically to different groups of asthmatic mice.
Asthmatic mice on acute therapy were given a single intravenous bolus infusion of either β-adrenergic drug or normal saline on protocol day 28, 15 minutes before airway responsiveness to methacholine was determined. […] […] […] These concentrations were chosen based on those producing therapeutic effects in mice in previously published studies. The non-asthmatic mice were fed normal chow.
On protocol day 28, mice were anesthetized, tracheotomized, and connected to a computer-controlled small animal ventilator (Flexivent, Scientific Respiratory Equipment, Inc., Montreal, Canada). Airway resistance (Raw) was measured using the forced oscillation technique. The cellular composition of bronchoalveolar lavage fluid (BALF) was also determined.
To induce airway constriction, a solution containing 150 μg/mL of acetyl-α-methylcholine chloride (methacholine) (Sigma Chemical, St. Louis, Mo.) was infused intravenously at constant rates using a syringe infusion pump (Raze Scientific Instruments, Stanford, Conn.). […] Each methacholine dose was administered for 3 to 5 minutes, during which data were sampled at 1-minute intervals and then averaged.
The complex input impedance of the respiratory system was computed and the value of the real part of respiratory system impedance at 19.75 Hz was taken to reflect the magnitude of airway resistance (Raw). To examine the degree of airway responsiveness of each animal, the values for Raw as a function of methacholine doses were plotted. The largest value for Raw achieved in response to methacholine stimulation was referred to as Rawpeak. For mice that achieved a plateau in the methacholine dose-Raw response curve, the ED50 was calculated by linear interpolation using the GraphPad Prism4 (GraphPad Software, Inc.). […] The Bonferroni test was used to examine the statistical differences between experimental groups. The effects of acute drug treatments on baseline respiratory system mechanics were assessed using a two-tailed paired t-test. A value of P<0.05 was considered significant.
For these experiments, salbutamol was used for chronic administration at 0.5 mg/kg/day with a minipump and for acute administration at 0.15 mg/kg by i.v. bolus 15 minutes prior to challenge. Alprenolol was used at a high dose of 7200 ppm in chow or at a low dose of 720 ppm in chow. Carvedilol was used at a high dose of 2400 ppm in chow or at a low dose of 720 ppm in chow.
The airway resistance (Raw) is plotted as cm H2O ml^−1 s.

[3] = cited from earlier work; remark: listed apart in the source
[4] = long-term administration; cited from earlier work
[5] = test system: antigen-induced bronchoconstriction; conditions: acute administration; cited from earlier work
patients with CHF = conditions: cited from earlier work
[6] = test system: sensitized and allergen-challenged mice; experiment: Aminophylline on acute airway effects of nadolol; format: in vivo; conditions: 100 mg/kg i.p. during methacholine infusion; untreated and nadolol-treated mice
Protocol: Mice were sensitized to the allergen ovalbumin as described in Example 1.
At time point 1 (time=−10 min) baseline airway resistance of the mice was determined. At time point 2 (time=−5 min) methacholine was infused into mice to reach their EC70.

[7] = in humans, in the presence of nadolol; cited from earlier work
β-adrenergic receptor = conditions: U.S. Pat. No. 6,284,800; cited from earlier work
[8] = healthy volunteers; after 9 d of treatment versus first treatment day; cited from earlier work
β3 = β3 (Homo sapiens, UniProt P13945); conditions: read-out: K1 values for β3; cited from earlier work
β2 = conditions: read-out: K1 values for β2 (first value); cited from earlier work
[9] = in vivo; cited from earlier work
[10] = acute: single intravenous bolus 15 minutes before methacholine
[11] = chronic administration, 28 days (in chow; salbutamol by osmotic minipump)

Sequence of β2-adrenergic receptor (P18762 whole entry): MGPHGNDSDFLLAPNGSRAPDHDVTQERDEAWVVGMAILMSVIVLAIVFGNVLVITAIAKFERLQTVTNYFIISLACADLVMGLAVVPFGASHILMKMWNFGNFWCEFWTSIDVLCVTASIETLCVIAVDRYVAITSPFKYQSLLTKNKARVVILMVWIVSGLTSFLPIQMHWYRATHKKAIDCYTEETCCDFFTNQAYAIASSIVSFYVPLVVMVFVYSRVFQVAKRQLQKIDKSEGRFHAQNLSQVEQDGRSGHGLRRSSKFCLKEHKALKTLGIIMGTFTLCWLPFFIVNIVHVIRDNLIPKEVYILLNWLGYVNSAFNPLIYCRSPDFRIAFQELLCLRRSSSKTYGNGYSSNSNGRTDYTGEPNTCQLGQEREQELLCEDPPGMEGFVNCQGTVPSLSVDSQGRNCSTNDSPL
Sequence of β3 (P13945 whole entry): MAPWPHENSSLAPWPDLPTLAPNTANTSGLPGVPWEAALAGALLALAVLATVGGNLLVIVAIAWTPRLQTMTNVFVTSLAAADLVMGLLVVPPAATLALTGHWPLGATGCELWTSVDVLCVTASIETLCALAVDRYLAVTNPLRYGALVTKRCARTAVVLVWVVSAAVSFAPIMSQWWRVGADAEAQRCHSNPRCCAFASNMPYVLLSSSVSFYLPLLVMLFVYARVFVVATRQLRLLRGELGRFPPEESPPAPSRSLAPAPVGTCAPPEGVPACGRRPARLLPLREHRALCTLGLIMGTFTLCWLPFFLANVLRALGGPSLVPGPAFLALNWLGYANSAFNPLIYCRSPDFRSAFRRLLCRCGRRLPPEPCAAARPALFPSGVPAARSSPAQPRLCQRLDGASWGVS

For `CCCC1O[C@@H]2C[C@H]3[C@@H]4CCC5=CC(=O)C=C[C@]5(C)[C@H]4[C@@H](O)C[C@]3(C)[C@]2(C(=O)CO)O1` (stereo partly shown) [budesonide], the “plasma clearance of the 2 enantiomers per kilogram of bodyweight, higher in children than adults” value ([1]; 6 children with asthma versus 11 healthy adults) is listed as “about 50%”, the “plasma clearance relative to the average clearance of prednisolone” value ([1]; in vivo) is listed as “about 10 fold” and the “systemic availability of the swallowed fraction” value ([1]; in vivo) is listed as 10.7±4.3%.
In the case of `Cc1ccc(OCC(O)C(C)NC(C)C)c2c1CCC2` (stereo not shown) [ICI-118,551], the “rank of effectiveness on contraction of excised tracheas in response to methacholine” value [2] is listed as “then ICI-118,551”.
In the case of `C=CCc1ccccc1OCC(O)CNC(C)C` (stereo not shown) [Alprenolol, alprenolol], the “Increased β2AR density” value (β2-adrenergic receptor; 15 minutes of administration) is reported as “yes”, the “Increased β2AR density” value (β2-adrenergic receptor; 2 days of administration) is reported as “no” and the “Increased β2AR density” value (β2-adrenergic receptor; 28 days of administration) is reported as “no”. For the same molecule, the “level of the β2-adrenergic receptor” value (β2-adrenergic receptor) was “slight decrease”, the “Bmax (receptor density)” value (β2-adrenergic receptor) was 299.5 ± 12.19 femtomoles of sites per milligram of protein and the “βmax (receptor density)” value (β2-adrenergic receptor) was 179.2 ± 53.05 femtomoles of sites per milligram of protein. For the same molecule, the “Decreased Raw” value (asthmatic mice; 15 minutes of administration) was “yes”, the “Decreased Raw” value (asthmatic mice; 2 days of administration) was “no” and the “Decreased Raw” value (asthmatic mice; 28 days of administration) was “no”. The “airway responsiveness to methacholine provocation (airway resistance, Raw)” value (shortened to “airway responsiveness”) (asthmatic mice; [10]) was “airway responsiveness was diminished”, the “airway responsiveness” value (asthmatic mice; [11]) was “does not reduce airway hyperresponsiveness; also recorded: provides no benefit upon chronic administration” and the “rank of effectiveness on contraction of excised tracheas in response to methacholine” value [2] was “most effective”.
In the case of `OCc1cc(C(O)CNCCCCCCOCCCCc2ccccc2)ccc1O` (stereo not shown) [salmeterol], the “time in which the majority of a dose is eliminated, predominantly in the feces” value ([3]; in vivo) is given as no more than 72 h and the “trial outcome (death rates)” value [4] is given as “stopped due to increased death rates”.
In the case of `CC(C)NC[C@H](O)COc1cccc2ccccc12` [L-form of propranolol, propranolol], the specific lung resistance [5] is given as “increased specific lung resistance”.
For `COCCc1ccc(OCC(O)CNC(C)C)cc1` (stereo not shown) [metoprolol], the “clinical outcome (mortality, benefit over placebo)” value (patients with CHF) is listed as “significant mortality reduction” and the airway hyperresponsiveness (asthmatic mice) is listed as “effective in reducing airway hyperresponsiveness”.
For `Cn1c(=O)c2[nH]cnc2n(C)c1=O` [aminophylline], the “airway resistance after administration” value [6] was “significant and sustained drop in airway resistance”.
For `CN[C@@H](C)[C@H](O)c1ccccc1` [ephedrine], the “level of thermogenesis relative to the ephedrine-untreated level” value [7] is listed as 40%.
For `C[C@@H]1C[C@H]2[C@@H]3C[C@H](F)C4=CC(=O)C=C[C@]4(C)[C@@]3(F)[C@@H](O)C[C@]2(C)[C@@]1(O)C(=O)SCF` [fluticasone], the “first-pass hepatic metabolism of the systemically absorbed drug” value ([1]; in vivo) is given as “almost complete”.
In the case of `CC(C)(C)NC[C@H](O)COc1nsnc1N1CCOCC1` [timolol], the airway hyperresponsiveness (asthmatic mice) is reported as “effective in reducing airway hyperresponsiveness”.
In the case of `CC(C)NC[C@@H](O)COc1cccc2ccccc12` [D-propranolol], the “antigen-induced bronchoconstriction and airway hyperresponsiveness” value [5] is listed as “beneficial in inhibiting antigen-induced bronchoconstriction and reducing airway hyperresponsiveness” and the “activity with respect to β-adrenergic receptors” value (β-adrenergic receptor) is listed as “inactive”.
For `O=S(=O)(Nc1ccc(CCNC[C@H](O)c2cccnc2)cc1)c1ccc(-c2nc(-c3ccc(C(F)(F)F)cc3)cs2)cc1` [L-796568], the “acute increases in plasma fatty acid concentrations” value [8] is given as “completely absent after 9 d of treatment”.
With `CC(C)(C)NCC(O)c1ccc(O)c(CO)c1` (stereo not shown) [Salbutamol, salbutamol] the “Increased β2AR density” value (β2-adrenergic receptor; 15 minutes of administration) was “yes”, the “Increased β2AR density” value (β2-adrenergic receptor; 2 days of administration) was “no” and the “Increased β2AR density” value (β2-adrenergic receptor; 28 days of administration) was “no”. The “level of the β2-adrenergic receptor” value (β2-adrenergic receptor) was “slight decrease”, the “Bmax (receptor density)” value (β2-adrenergic receptor) was 256.5 ± 29.24 femtomoles of sites per milligram of protein and the “βmax (receptor density)” value (β2-adrenergic receptor) was 97.0 ± 23.02 femtomoles of sites per milligram of protein. The “Decreased Raw” value (asthmatic mice; 15 minutes of administration) was “yes”, the “Decreased Raw” value (asthmatic mice; 2 days of administration) was “no” and the “Decreased Raw” value (asthmatic mice; 28 days of administration) was “no”. For the same molecule, the “airway responsiveness” value (asthmatic mice; [10]) was “reduced the level of airway responsiveness to methacholine provocation”, the “airway responsiveness” value (asthmatic mice; [11]) was “no protection was observed” and the “bioavailability of inhaled drug” value ([3]; 10 patients with cystic fibrosis versus healthy adults) was “greater”.
In the case of `CC(C)(C)NCC(O)c1cc(O)cc(O)c1` (stereo not shown) [terbutaline], the “increase of bioavailability by the oral component” value ([3]; from an MDI) is listed as 6.7% and the “absorption through the lung” value ([3]; healthy smokers versus healthy nonsmokers) is listed as “more rapidly”.
For `Cc1ccc(Cl)c(OCC(O)CNC(C)(C)C)c1` (stereo not shown) [bupranolol], the Ki (β3) is listed as 0.05 µM, the Ki (β2) is listed as 0.0017 µM and the half-life [9] is listed as 1.5 h.
In the case of `CC(C)(Cc1c[nH]c2ccccc12)NCC(O)COc1ccccc1C#N` (stereo not shown) [Bucindolol, bucindolol], the “clinical outcome (mortality, benefit over placebo)” value (patients with CHF) is listed as “failed to demonstrate any benefit over placebo”.
